Columns and labels:
[1] = target: Kappa-type opioid receptor (Cavia porcellus, UniProt P41144)
[2] = target: Delta-type opioid receptor (Sus scrofa, UniProt P79291)
Sequence of Delta-type opioid receptor (P79291 whole entry): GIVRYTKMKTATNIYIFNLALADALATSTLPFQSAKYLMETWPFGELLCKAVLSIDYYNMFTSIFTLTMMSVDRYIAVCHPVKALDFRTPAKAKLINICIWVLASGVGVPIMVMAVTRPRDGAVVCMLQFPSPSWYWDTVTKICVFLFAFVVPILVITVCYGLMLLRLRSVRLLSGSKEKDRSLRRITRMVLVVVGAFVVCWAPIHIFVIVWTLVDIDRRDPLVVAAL

Sequence of Kappa-type opioid receptor (P41144 whole entry): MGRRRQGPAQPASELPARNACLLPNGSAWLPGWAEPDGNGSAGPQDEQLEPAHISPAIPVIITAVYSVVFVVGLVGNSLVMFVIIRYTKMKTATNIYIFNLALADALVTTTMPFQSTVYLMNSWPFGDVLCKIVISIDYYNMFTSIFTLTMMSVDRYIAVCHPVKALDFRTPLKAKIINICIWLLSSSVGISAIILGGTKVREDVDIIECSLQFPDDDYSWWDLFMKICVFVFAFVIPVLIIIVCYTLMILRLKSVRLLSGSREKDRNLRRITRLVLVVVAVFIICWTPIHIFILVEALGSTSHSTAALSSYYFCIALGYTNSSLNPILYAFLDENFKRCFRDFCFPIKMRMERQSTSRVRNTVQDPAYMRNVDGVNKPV

C[C@@H]1[C@@H]2Cc3ccc(O)cc3[C@@]1(C)CCN2CC1CC1 [(SSS)-12-Cyclopropylmethyl-13-methyl-12-aza-tricyclo[9.1.1.0*3,8*]trideca-3(8),4,6-trien-6-ol(cyclazocine)] was tested, and the Ki [1] was 0.18 nM and the Ki [2] was 1.1 nM.

From BindingDB's records for doi:10.1124/jpet.302.1.374 (University of Rochester, 2002)
